Reference: ChEMBL document CHEMBL5543145, “Discovery of the First-in-Class G9a/GLP PROTAC Degrader” (J Med Chem, 2024)
Activity calls are given as the source filed them. No cut-off for these calls is given here.

Experiments:
[1] = target: T1, von Hippel-Lindau disease tumor suppressor/Histone-lysine N-methyltransferase EHMT1 (Homo sapiens, UniProt Q9H9B1+P40337); assay: PROTAC activity at GLP/VHL in human 22Rv1 cells assessed as induction of GLP degradation at 3 uM incubated for 24 hrs by Western blot analysis relative to control; assay type: cell-based
[2] = target: T2, von Hippel-Lindau disease tumor suppressor/Histone-lysine N-methyltransferase EHMT2 (Homo sapiens, UniProt Q96KQ7+P40337); assay: PROTAC activity at G9a/VHL in human 22Rv1 cells assessed as induction of G9a degradation at 0.3 uM incubated for 24 hrs by Western blot analysis relative to control; assay type: cell-based
[3] = target: T2, von Hippel-Lindau disease tumor suppressor/Histone-lysine N-methyltransferase EHMT2; assay: PROTAC activity at G9a/VHL in human 22Rv1 cells assessed as induction of G9a degradation at 3 uM incubated for 24 hrs by Western blot analysis relative to control; assay type: cell-based
[4] = target: T1, von Hippel-Lindau disease tumor suppressor/Histone-lysine N-methyltransferase EHMT1; assay: PROTAC activity at GLP/VHL in human 22Rv1 cells assessed as induction of GLP degradation at 0.3 uM incubated for 24 hrs by Western blot analysis relative to control; assay type: cell-based
[5] = test system: NCI-H1299; assay: Cytotoxicity against human NCI-H1299 cells assessed as growth inhibition incubated for 8 days; assay type: functional; conditions: NCI-H1299, 192 h, time 8 day
[6] = test system: CWR22R; assay: Cytotoxicity against human 22Rv1 cells assessed as growth inhibition measured for 7 days; assay type: functional; conditions: 22Rv1, 168 h, time 7 day
[7] = target: T1, von Hippel-Lindau disease tumor suppressor/Histone-lysine N-methyltransferase EHMT1; assay: PROTAC activity at GLP/VHL in human 22Rv1 cells assessed as effect on VHL level at 3 uM incubated for 24 hrs by RT-qPCR analysis; assay type: cell-based
[8] = target: T1, von Hippel-Lindau disease tumor suppressor/Histone-lysine N-methyltransferase EHMT1; assay: PROTAC activity at GLP/VHL in human 22Rv1 cells assessed as induction of GLP degradation at 1 uM incubated for 24 hrs by Western blot analysis; assay type: cell-based
[9] = test system: K562; assay: Cytotoxicity against human K562 cells assessed as growth inhibition incubated for 7 days; assay type: functional; conditions: time 7.0 day
[10] = test system: K562; assay: Cytotoxicity against human K562 cells assessed as reduction in cell viability incubated for 8 days; assay type: functional, cell-based; conditions: K562, 192 h
[11] = target: T1, von Hippel-Lindau disease tumor suppressor/Histone-lysine N-methyltransferase EHMT1; assay: PROTAC activity at GLP/VHL in human 22Rv1 cells assessed as effect on GLP level upto 3 uM measured for 24 hrs by Western blot analysis; assay type: cell-based
[12] = target: T2, von Hippel-Lindau disease tumor suppressor/Histone-lysine N-methyltransferase EHMT2; assay: PROTAC activity at G9a/VHL in human 22Rv1 cells assessed as effect on G9a level upto 3 uM measured for 24 hrs by Western blot analysis; assay type: cell-based

T2 sequence (P40337 whole entry partner): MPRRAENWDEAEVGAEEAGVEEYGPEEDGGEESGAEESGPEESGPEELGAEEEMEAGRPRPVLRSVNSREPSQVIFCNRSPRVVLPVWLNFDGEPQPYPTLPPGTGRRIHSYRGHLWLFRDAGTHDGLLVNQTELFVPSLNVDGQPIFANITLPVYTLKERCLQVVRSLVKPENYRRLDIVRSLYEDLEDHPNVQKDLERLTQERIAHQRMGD
T2 sequence (Q96KQ7 2-1210 limits assumed): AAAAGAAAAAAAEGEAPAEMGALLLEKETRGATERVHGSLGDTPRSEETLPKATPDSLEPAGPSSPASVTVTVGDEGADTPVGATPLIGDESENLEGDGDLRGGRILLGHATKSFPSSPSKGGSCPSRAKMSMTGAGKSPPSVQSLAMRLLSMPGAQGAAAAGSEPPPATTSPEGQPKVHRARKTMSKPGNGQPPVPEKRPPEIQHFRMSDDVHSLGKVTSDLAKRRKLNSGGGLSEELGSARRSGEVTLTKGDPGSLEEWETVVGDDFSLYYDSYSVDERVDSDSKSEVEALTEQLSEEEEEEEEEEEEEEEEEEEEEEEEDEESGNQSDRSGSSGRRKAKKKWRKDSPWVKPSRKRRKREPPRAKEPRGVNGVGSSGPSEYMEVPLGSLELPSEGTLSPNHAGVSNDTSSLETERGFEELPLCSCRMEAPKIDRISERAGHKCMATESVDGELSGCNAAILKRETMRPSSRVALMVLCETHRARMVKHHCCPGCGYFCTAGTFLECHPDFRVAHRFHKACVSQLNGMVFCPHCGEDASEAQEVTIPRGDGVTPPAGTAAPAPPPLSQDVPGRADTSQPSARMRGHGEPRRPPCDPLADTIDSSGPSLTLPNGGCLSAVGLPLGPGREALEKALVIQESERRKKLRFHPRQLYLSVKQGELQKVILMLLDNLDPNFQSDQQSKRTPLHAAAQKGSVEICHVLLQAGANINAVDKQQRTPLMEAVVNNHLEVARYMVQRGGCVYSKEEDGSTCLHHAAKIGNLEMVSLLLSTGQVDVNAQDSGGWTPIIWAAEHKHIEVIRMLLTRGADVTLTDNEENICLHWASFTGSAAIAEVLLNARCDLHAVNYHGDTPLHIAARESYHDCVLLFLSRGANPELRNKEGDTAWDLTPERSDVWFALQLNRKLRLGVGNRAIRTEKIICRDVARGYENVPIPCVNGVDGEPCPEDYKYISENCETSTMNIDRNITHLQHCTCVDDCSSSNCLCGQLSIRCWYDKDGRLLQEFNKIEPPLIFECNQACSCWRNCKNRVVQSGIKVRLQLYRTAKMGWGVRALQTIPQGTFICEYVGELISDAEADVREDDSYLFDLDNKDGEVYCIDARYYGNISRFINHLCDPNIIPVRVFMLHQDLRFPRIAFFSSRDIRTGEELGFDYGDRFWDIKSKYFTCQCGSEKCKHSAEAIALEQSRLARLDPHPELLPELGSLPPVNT
T1 sequence (P40337 whole entry partner): as the sequence (P40337 whole entry partner) above
T1 sequence (Q9H9B1 2-1298 limits assumed): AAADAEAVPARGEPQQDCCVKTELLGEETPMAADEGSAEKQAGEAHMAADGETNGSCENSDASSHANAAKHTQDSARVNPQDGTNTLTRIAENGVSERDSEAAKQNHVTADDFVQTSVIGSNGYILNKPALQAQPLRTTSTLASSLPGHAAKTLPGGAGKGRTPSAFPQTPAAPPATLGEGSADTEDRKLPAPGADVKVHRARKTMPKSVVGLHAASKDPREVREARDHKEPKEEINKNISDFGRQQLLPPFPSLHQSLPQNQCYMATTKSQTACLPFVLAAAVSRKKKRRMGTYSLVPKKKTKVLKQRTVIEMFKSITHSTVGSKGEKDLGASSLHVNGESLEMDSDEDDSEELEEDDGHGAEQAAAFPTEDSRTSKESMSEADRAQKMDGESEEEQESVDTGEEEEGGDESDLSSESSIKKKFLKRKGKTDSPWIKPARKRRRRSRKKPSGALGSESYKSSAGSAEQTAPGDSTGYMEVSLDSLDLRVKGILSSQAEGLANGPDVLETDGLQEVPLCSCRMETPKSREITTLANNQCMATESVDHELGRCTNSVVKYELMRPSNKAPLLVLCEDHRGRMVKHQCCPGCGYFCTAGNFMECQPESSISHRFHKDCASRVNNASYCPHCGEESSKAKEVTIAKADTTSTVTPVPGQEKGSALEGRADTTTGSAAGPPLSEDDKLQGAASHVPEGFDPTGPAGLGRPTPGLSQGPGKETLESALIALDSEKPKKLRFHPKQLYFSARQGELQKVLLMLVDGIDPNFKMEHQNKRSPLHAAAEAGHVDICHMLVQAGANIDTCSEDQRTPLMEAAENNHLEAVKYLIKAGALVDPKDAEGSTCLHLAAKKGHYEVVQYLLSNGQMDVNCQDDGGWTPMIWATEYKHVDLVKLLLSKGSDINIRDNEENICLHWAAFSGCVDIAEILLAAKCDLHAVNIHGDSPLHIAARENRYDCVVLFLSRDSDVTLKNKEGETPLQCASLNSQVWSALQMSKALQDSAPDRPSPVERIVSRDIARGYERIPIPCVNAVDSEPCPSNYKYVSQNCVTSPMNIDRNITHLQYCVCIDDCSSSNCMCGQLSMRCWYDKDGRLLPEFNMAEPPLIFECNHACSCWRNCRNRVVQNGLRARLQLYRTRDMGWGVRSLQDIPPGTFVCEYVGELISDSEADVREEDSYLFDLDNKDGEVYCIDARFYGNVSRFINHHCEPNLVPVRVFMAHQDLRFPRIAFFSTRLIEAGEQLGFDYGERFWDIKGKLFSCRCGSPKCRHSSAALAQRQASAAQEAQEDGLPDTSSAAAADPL

SMILES | Emax [1] [%] | Emax [2] [%] | Emax [3] [%] | Emax [4] [%] | also measured
COc1cc2c(NC3CCN(CCCC(=O)NCCCCCCCCCC(=O)N[C@H](C(=O)N4C[C@H](O)C[C@H]4C(=O)NCc4ccc(-c5scnc5C)cc4)C(C)(C)C)CC3)nc(N3CCC(F)(F)CC3)nc2cc1OCCCN1CCCC1 | < 96 | 67 | < 92 | 84 | 
COc1cc2c(NC3CCN(CCCC(=O)NCCCCC(=O)N[C@H](C(=O)N4C[C@H](O)C[C@H]4C(=O)NCc4ccc(-c5scnc5C)cc4)C(C)(C)C)CC3)nc(N3CCC(F)(F)CC3)nc2cc1OCCCN1CCCC1 | < 11 |  | < 11 | < 9 | 
COc1cc2c(NC3CCN(CCCC(=O)NCCCCCC(=O)N[C@H](C(=O)N4C[C@H](O)C[C@H]4C(=O)NCc4ccc(-c5scnc5C)cc4)C(C)(C)C)CC3)nc(N3CCC(F)(F)CC3)nc2cc1OCCCN1CCCC1 | < 19 |  | < 30 | < 5 | 
COc1cc2c(NC3CCN(CCCC(=O)NCCCCCCCC(=O)N[C@H](C(=O)N4C[C@H](O)C[C@H]4C(=O)NCc4ccc(-c5scnc5C)cc4)C(C)(C)C)CC3)nc(N3CCC(F)(F)CC3)nc2cc1OCCCN1CCCC1 | 68 |  | 75 | < 28 | 
COc1cc2c(NC3CCN(CCCC(=O)NCCCCCCCCCCC(=O)N[C@H](C(=O)N4C[C@H](O)C[C@H]4C(=O)NCc4ccc(-c5scnc5C)cc4)C(C)(C)C)CC3)nc(N3CCC(F)(F)CC3)nc2cc1OCCCN1CCCC1 | < 94 | 79 | < 92 | 69 | 
COc1cc2c(NC3CCN(C(C)C)CC3)nc(N3CCC(F)(F)CC3)nc2cc1OCCCN1CCCC1 |  |  |  |  | GI50 [5]: > 10 µM; GI50 [6]: > 10 µM; Activity [7]: Active; Activity [8]: inactive; Activity [9]: inactive; IC50 [10]: > 10 µM
COc1cc2c(NC3CCN(CCCC(=O)NCCC(=O)N[C@H](C(=O)N4C[C@H](O)C[C@H]4C(=O)NCc4ccc(-c5scnc5C)cc4)C(C)(C)C)CC3)nc(N3CCC(F)(F)CC3)nc2cc1OCCCN1CCCC1 | 70 | 66 | 61 | 54 | 
COc1cc2c(NC3CCN(CCCC(=O)NCCOCCOCCC(=O)N[C@H](C(=O)N4C[C@H](O)C[C@H]4C(=O)NCc4ccc(-c5scnc5C)cc4)C(C)(C)C)CC3)nc(N3CCC(F)(F)CC3)nc2cc1OCCCN1CCCC1 | 21 |  | < 13 | < 7 | 
COc1cc2c(NC3CCN(CCCC(=O)NCCOCCOCCOCCC(=O)N[C@H](C(=O)N4C[C@H](O)C[C@H]4C(=O)NCc4ccc(-c5scnc5C)cc4)C(C)(C)C)CC3)nc(N3CCC(F)(F)CC3)nc2cc1OCCCN1CCCC1 | < 27 |  |  | < 16 | 
COc1cc2c(NC3CCN(CCCC(=O)NCCCCCCC(=O)N[C@H](C(=O)N4C[C@H](O)C[C@H]4C(=O)NCc4ccc(-c5scnc5C)cc4)C(C)(C)C)CC3)nc(N3CCC(F)(F)CC3)nc2cc1OCCCN1CCCC1 | < 20 | < 10 | < 30 | < 7 | 
COc1cc2c(NC3CCN(CCCC(=O)NCCCC(=O)N[C@H](C(=O)N4C[C@H](O)C[C@H]4C(=O)NCc4ccc(-c5scnc5C)cc4)C(C)(C)C)CC3)nc(N3CCC(F)(F)CC3)nc2cc1OCCCN1CCCC1 | 21 | < 8 |  | < 3 | 
COc1cc2c(NN3CCN(CCCC(=O)NCCCCCCCCC(=O)N[C@H](C(=O)N4C[C@H](O)C[C@H]4C(=O)NCc4ccc(-c5scnc5C)cc4)C(C)(C)C)CC3)nc(N3CCC(F)(F)CC3)nc2cc1OCCCN1CCCC1 | 86 |  | 87 | < 27 | 
COc1cc2c(NC3CCN(CCCC(=O)NCCCCCCCCCCCC(=O)N[C@H](C(=O)N4C[C@@H](O)C[C@@H]4C(=O)NCc4ccc(-c5scnc5C)cc4)C(C)(C)C)CC3)nc(N3CCC(F)(F)CC3)nc2cc1OCCCN1CCCC1 |  |  |  |  | Activity [11]: inactive; Activity [12]: inactive
COc1cc2c(NC3CCN(CCCC(=O)NCCOCCC(=O)N[C@H](C(=O)N4C[C@H](O)C[C@H]4C(=O)NCc4ccc(-c5scnc5C)cc4)C(C)(C)C)CC3)nc(N3CCC(F)(F)CC3)nc2cc1OCCCN1CCCC1 | 88 |  |  | < 10 | 
